Legend:
[1] = system: RGCs in rat retinal explants; experiment: NMDA-treated retinal explants, Brn-3a-immunopositive RGC density on flat-mounts; conditions: for RGC density (Brn-3a-immunopositive): mean±s.e.m.
Procedure: E) Quantification of RGC densities from whole flat-mounted retinal explants using the automated counting platform. […] The scale bar represents 100 μm.
At the end of the incubation, RGCs were immunolabeled with an anti-Brn-3a antibody.

optic nerve = conditions: treated infants; Frisen and Malmgren 2003, Viestenz et al. 2003, Buncic et al. 2004; cited from earlier work
retinal ganglion cells [2] = experiment: Retinal ganglion cell degeneration induced by vigabatrin in young rats, Brn3A-positive RGC count in retinal sections; type: in vivo, Wistar rats
Procedure: Breeds of Wistar rats Rj Wi IOPS Han were purchased from Janvier (Le Genest-St-Isle, France). Vigabatrin (VGB) dissolved in 0.9% NaCl was administered at 0.6 mg/jour (6 mg/ml, 0.1 ml) to rats by daily intraperitoneal injection for 25 days from age 4 days. These daily doses (50 mg/kg for rats of 12 g) are in-line with those described for the treatment of epilepsy (adult patients: […]; children:50-75 mg/kg; or infants: 100-150 mg/kg) (Aicardi et al., 1996; Chiron et al., 1997; Lux et al., 2004).
Animals were anesthetized by intraperitoneal injection (0.8 to 1.2 ml/kg) of a solution containing ketamine (40 mg/ml) and xylazine (4 mg/ml Rompum). They were then perfused first with heparin 1000 UI/ml in saline solution (0.9% NaCl), then with fixative containing 4% Paraformaldehyde (Merck chemicals ref.: 100496) and 0.2% glutaraldehyde (fluka 25%). Eye cups were isolated and fixed overnight at 4° C. in 4% (wt/vol) paraformaldehyde in phosphate buffered saline (PBS; 0.01M, pH 7.4). The tissue was cryoprotected in successive solutions of PBS containing 10%, 20% and 30% sucrose at 4° C., oriented along the dorso-ventral axis and embedded in OCT (Labonord, Villeneuve d'Ascq, France). Retinal sections (8-10 μm thickness) were permeabilised for five minutes in PBS containing 0.1% Triton X-100 (Sigma, St. Louis, Mo.), rinsed, and incubated in PBS containing 1% bovine serum albumin (Eurobio, Les-Ulis, France), 0.1% Tween 20 (Sigma), and 0.1% sodium azide (Merck, Fontenay-Sous-Bois, France) for two hours at room temperature. The primary Brn3A monoclonal antibody (Chemicon) was added to the solution and incubated for two hours at room temperature. Sections were rinsed and then incubated with the secondary antibody, rabbit anti-mouse IgG conjugated to either Alexa™594 (1:500, Molecular Probes) for two hours. […] Quantifications were achieved on whole vertical sections cut along the dorso-ventral axis and crossing the optic nerve. […]

[3] = system: glutamate N-methyl-D-aspartate (NMDA) receptors; conditions: Seki M et al., 2008; cited from earlier work
retinal ganglion cells [4] = experiment: Episcleral vein occlusion rat model of glaucoma (taurine plasma level, IOP, photopic ERG, Brn-3a RGC count); type: in vivo, Long-Evans rats; conditions: taurine 0.2 M in drinking water, 3 months after occlusion, vs water animals; statistically significant
Procedure: Long-Evans rats (8-week old) were purchased from Janvier (Le Genest-St-Isle, France) whereas DBA/2J mice (8-month old) were purchased from Charles River (Larbresle, France). Heterozygous P23H rats (line 1) and Sprague Dawley rats (n=7) were bred at Charles River (Saint Aubin-les-Elbeuf, France).
Occlusion of episcleral veins was performed on 8 week-old Long-Evans or Wistar rats as described previously (Mittag et al., 2000). Animals were anesthetized with a mixture Ketamine (100 mg/Kg; Virbac, France) and, Xylazine (10 mg/Kg; Bayer, Leverkusen, Germany), and a local anesthesia (Tetracaine, Laboratoires TVM, Lempdes, France) were administrated on the cornea. At the level of the right eye, three episcleral veins, superonasal, superotemporal and inferotemporal, were emerged by removing the conjunctive tissue. Vein occlusion was realized by cauterization, using Aesculap® bipolar forceps (B. Braun, Melsungen, Germany). […]
IOP was measured from right and left eyes on awake animals using a Tonolab tonometer (Icare, Helsinki, Finland). The tonometer was applied perpendicularly to the cornea and three successive measures were recorded and the average was taken for the final value of IOP.
Photopic ERGs were performed on cauterized and control eyes from rats and DBA2/J mice. […] ERG were recorded using two gold loop electrodes were placed on the corneal surface of each eye and maintained with 3% Ocry-gel. […]

retinal ganglion cells [5] = experiment: DBA/2J mice, model of pigmentary glaucoma (taurine plasma level, photopic ERG); type: in vivo; conditions: 12-month old DBA/2J mice, taurine supplementation for 4 months vs pure water
Procedure: Photopic ERGs were performed on cauterized and control eyes from rats and DBA2/J mice. Animals were anesthetized by an intramuscular injection with a solution containing a mixture of Ketamine (100 mg/Kg) and, Xylazine (10 mg/Kg). Pupils were dilated by a topical application of Mydriaticum, Laboratoires Thea, Clermont-Ferrand, France). ERG were recorded using two gold loop electrodes were placed on the corneal surface of each eye and maintained with 3% Ocry-gel. These recording electrodes were respectively referenced with two steel electrodes, inserted sub-cuteanously at the level of each cheek of animals. A needle electrode, also inserted sub-cuteanously, at the level of the basis of the tail served as ground. Responses to light stimulus were amplified, filtered and digitalized using the “Multiliner vision” program.
Statistical analysis of the results was performed on raw data. An unpaired student t test was used to compare means of 2 groups. For more than 2 groups compared, a one-way ANOVA was used for variance analysis, followed in case of significance by a Bonferroni post-hoc test to compare the means of each group. Differences were considered significant at *P<0.05; **P<0.01; and ***P<0.001.

[6] = system: pure adult rat RGC in culture; experiment: Survival of pure cultured retinal ganglion cells (live-dead viability test, 6 DIV vs 1 DIV); type: cell-based, Long Evans rat; conditions: 1 mM taurine, 6 days in culture
Text: Primary cultures of pure ganglion cells: Primary cultures of retinal ganglion cells (RGC) were isolated from retinae of adult Long Evans rat (8-week old) with an immunopanning technique, according the protocol previously described in young rats by Barres et al. (1988). Briefly, animals were anesthetized and killed by cerebral dislocation and their eyes removed and placed in a solution of phosphate-buffered saline (PBS) containing 1 g/1 of glucose (PBS-glucose; Invitrogen, Carlsbad, Calif., USA). After one rinse in PBS-glucose, retinae were incubated in the same medium containing 33 UI/ml of papain (Worthington, Lakewood, N.J., USA) and 200 UI/ml of DNAse (Sigma-Aldrich, St-Louis, MO, USA) for 30 min at 37° C. They were then rinsed in PBS-glucose, containing 0.15% ovomucoid (Roche Diagnosis, Basel, Switzerland) and 0.15% bovine serum albumin (BSA; Sigma-Aldrich). […]
RGC viability was assessed with the “lived-dead” test (Invitrogen), which consists in labelling viable cells with calcein AM detected as a green fluorescence, whereas dead cell were labelled with ethidium producing a red fluorescence. […] Only lived RCG were counted from seven fields taken on each coverslip using a microscope (Leica DM 5000B, Solms, Germany) equipped for epifluorescence. Viable RCG were counted at 1 day in vitro (DIV) and 6 DIV to calculate the percentage of cell survival.

retinal ganglion cells [7] = experiment: P23H rat model of retinitis pigmentosa, Brn3a immunopositive RGC count in retinal sections; type: in vivo, heterozygous P23H rats
Text: Long-Evans rats (8-week old) were purchased from Janvier (Le Genest-St-Isle, France) whereas DBA/2J mice (8-month old) were purchased from Charles River (Larbresle, France). Heterozygous P23H rats and Sprague Dawley rats (n=7) were bred at Charles River (Saint Aubin-les-Elbeuf, France). For taurine supplementation, animals were divided in two groups: a control group and a group receiving taurine in its drinking water. […] Animals drinking water without added taurine were always considered as control animals.
Animals were anesthetized and killed by cerebral dislocation and their eyes were removed and placed into a fixative solution containing 4% paraformaldehyde (Merck chemicals, Darmstadt, Germany) for 24 hours. Eye cups were isolated and cryoprotected in successive solutions of PBS containing 10%, 20% and 30% sucrose at 4° C., oriented along the dorso-ventral axis and embedded in NEG50® (Microm, Francheville, France). Retinal sections were permeabilized for five minutes in PBS containing 0.1% Triton X-100 (Sigma, St. Louis, Mo.), rinsed, and incubated in PBS containing 1% bovine serum albumin (Sigma) and 0.05% Tween 20 (Sigma) for one hour at room temperature. […] Quantifications were achieved on whole vertical sections cut along the dorso-ventral axis and crossing the optic nerve. […]

Question: Which “RGC density (Brn-3a-immunopositive)” value ([1]; 100 μM NMDA for 4 days, control 996.0±26.5, n=31) does the source give for `CN[C@H](CC(=O)O)C(=O)O` [NMDA, N-methyl-D-aspartate, reference compound] here?
Answer: 555.6±31.8 cells/mm2

Question: What about the “reduction in RGC density vs control” value ([1]; 100 μM NMDA for 4 days, p<0.001) of the same molecule?
Answer: −44%

Question: With `C=CC(N)CCC(=O)O` (stereo not drawn) [VGB, Vigabatrin] as the molecule, how does the optic nerve atrophy (optic nerve) read?
Answer: induced an optic nerve atrophy

Question: And the “decrease in number of retinal ganglion cells vs control” value (retinal ganglion cells [2]; young rats treated with VGB, p<0.001)?
Answer: 56%

Question: What about the “number of retinal ganglion cells (Brn3A-positive, retinal sections)” value (retinal ganglion cells [2]; young rats, VGB 0.6 mg/day i.p. for 25 days from age 4 days, control 15.06±0.93, s.e.m., n=10) of the same molecule?
Answer: 6.56±0.32

Question: Which “RGC neuroprotection in models of glaucoma” value [3] does the source give for `CC12CC3CC(C)(C1)CC(N)(C3)C2` [memantine] here?
Answer: exert an RGC neuroprotection

Question: Which results are given for `NCCS(=O)(=O)O` [taurine, 2-aminoethanesulfonic acid]?
Answer: decrease in photopic ERG amplitudes on operated eye (retinal ganglion cells [4]): less important than in animals without taurine supplementation; decrease in photopic ERG amplitudes (retinal ganglion cells [5]): partially prevented; increase in number of surviving cells vs control conditions [6]: 49%; RGC survival at 6 DIV as percentage of that at 1 DIV ([6]; control conditions 18.2±1.8%, mean±SEM): 27.2±3.7%; cell loss rescued by co-incubation with NMDA ([1]; 100 μM NMDA plus 1 mM taurine for 4 days): 22%; RGC density (Brn-3a-immunopositive) ([1]; 100 μM NMDA plus 1 mM taurine for 4 days, n=23, p<0.05 vs NMDA): 655.7±44.4 cells/mm2; average RGC number (brn3a immunopositive, retinal sections) (retinal ganglion cells [7]; taurine 0.1 M in drinking water from 9 to 12 months, n=6, untreated P23H 298±12, Sprague-Dawley control 411±19, mean±SEM): 344±8; RGC loss prevented (retinal ganglion cells [7]; taurine 0.1 M in drinking water, P<0.01 vs untreated P23H): 40%; number of retinal ganglion cells greater than in VGB-treated group without supplementation (retinal ganglion cells [2]; VGB-treated rats with taurine supplementation, p<0.001): 84.9%
